# Data: paper PMC6351529, “Novel carboxylate-based glycolipids: TLR4 antagonism, MD-2 binding and self-assembly properties” (Scientific Reports, 2019)
# Legend:
# human MD-2 (hMD-2) = target: T1, human MD-2 (hMD-2) (Homo sapiens, UniProt Q9Y6Y9); test: Surface plasmon resonance (SPR) on immobilized hMD-2; conditions: 1:1 Langmuir binding model, 25 °C
# T1 construct: made in house; host or cells: Pichia pastoris
# T1 sequence (Q9Y6Y9 19-160): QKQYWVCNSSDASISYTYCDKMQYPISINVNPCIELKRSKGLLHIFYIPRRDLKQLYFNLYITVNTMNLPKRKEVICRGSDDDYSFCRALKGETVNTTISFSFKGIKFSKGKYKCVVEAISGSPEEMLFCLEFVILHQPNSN
# Method: SPR experimental curve optimal fitting was obtained by assuming 1:1 ligand/MD-2 binding stoichiometry.
# The binding affinity of the compounds to recombinant hMD-2 was determined using a Biacore X100 with an NTA sensor chip (Biacore, GE Healthcare, Uppsala, Sweden). Briefly, 0.5 μM hMD-2 (in 50 mM TRIS, 150 mM NaCl, 0.5% Tween 20, pH 7.5) was immobilized onto the sensor chip previously activated with 1-min. pulse of 10 mM NiSO4. First flow cell was used as a reference surface to control non-specific binding. Both flow cells were injected with the analyte (in PBS, 5% DMSO, 5% EtOH, pH 7.5) at a flow rate of 10 μL/min at 25 °C in increasing concentrations. The data were analyzed with Biacore Evaluation software. KD values were calculated by global fitting of the equilibrium binding responses from various concentrations of analytes using a 1:1 Langmuir binding model.
# human TLR4 = target: T2, human TLR4 (Homo sapiens, UniProt O00206+Q9Y6Y9); test: Inhibition of LPS-stimulated TLR4 activation in HEK293-Blue hTLR4 cells (SEAP reporter); format: cell-based; conditions: LPS 100 ng/mL, 15 min pre-incubation, 16 h, serum-free DMEM
# T2 construct: host or cells: HEK-Blue hTLR4 (HEK293)
# T2 sequence (O00206 24-839, one chain of several): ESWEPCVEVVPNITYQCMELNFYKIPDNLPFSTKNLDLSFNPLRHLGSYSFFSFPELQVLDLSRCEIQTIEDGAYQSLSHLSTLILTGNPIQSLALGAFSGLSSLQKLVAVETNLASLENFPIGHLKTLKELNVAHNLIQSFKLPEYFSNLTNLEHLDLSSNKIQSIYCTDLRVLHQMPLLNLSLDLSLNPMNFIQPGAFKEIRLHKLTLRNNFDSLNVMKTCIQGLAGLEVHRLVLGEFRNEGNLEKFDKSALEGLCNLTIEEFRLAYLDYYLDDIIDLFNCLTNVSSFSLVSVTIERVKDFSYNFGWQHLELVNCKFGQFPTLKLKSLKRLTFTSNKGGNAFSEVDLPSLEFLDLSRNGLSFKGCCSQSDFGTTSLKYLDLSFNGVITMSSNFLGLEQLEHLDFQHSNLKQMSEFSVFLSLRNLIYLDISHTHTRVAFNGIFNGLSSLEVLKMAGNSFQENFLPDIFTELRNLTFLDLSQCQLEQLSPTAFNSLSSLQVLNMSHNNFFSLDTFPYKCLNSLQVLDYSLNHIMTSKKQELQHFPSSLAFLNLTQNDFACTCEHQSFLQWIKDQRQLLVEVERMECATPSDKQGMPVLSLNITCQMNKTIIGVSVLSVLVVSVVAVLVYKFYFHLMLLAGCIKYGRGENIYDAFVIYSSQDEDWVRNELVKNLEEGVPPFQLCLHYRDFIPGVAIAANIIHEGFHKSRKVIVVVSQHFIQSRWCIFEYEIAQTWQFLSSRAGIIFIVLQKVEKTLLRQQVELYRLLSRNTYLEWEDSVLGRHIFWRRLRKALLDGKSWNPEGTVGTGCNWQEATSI
# Text: Synthetic monosaccharides were screened for their capacity to activate or inhibit LPS-stimulated TLR4 activation in HEK293-Blue hTLR4 cells. HEK293-Blue hTLR4 cells are HEK cells transfected in order to express the human receptors involved in LPS detection process (TLR4, MD-2 and membrane-bound CD14) and an inducible SEAP (secreted embryonic alkaline phosphatase) reporter gene placed under the control of NF-kB and AP-1-transcription factors. Activation of the MyD88-dependent TLR4 pathway promotes the production and secretion of SEAP in the cell culture media, which can be easily quantified.
# SEAP levels in cell culture media were quantified after 16 hours as indicator of TLR4 activation. Data were normalized to stimulation with LPS alone and fitted to a sigmoidal 4 parameter logistic equation to obtain dose-effect curves (left panel). […] Briefly, cells were cultured in DMEM high glucose medium supplemented with 10% fetal bovine serum (FBS), 2 mM glutamine, antibiotics and 1 × HEK-Blue Selection (InvivoGen). Cells were detached using a cell scraper, counted and seeded in a 96-well multiwell plate at a density of 4 × 10^4 cells per well. […] For the antagonism evaluation, cells were stimulated with LPS (100 ng/mL, E. coli O55:B5, Sigma-Aldrich) after compounds pre-treatment and incubated for 16 hours as above. The SEAP-containing supernatants were collected and incubated with para-nitrophenyl phosphate (pNPP) for 2−4 h in the dark at room temperature. The wells optical density was determined using a microplate reader (labtech LT-4000) set to 405 nm.
# [1] = system: TLR4 signaling in RAW 264.7-Blue cells; test: LPS-induced TLR4 signaling in RAW 264.7-Blue cells (SEAP reporter, QUANTI-Blue); format: cell-based, murine
# Method: To characterize the effect of synthetic compounds FP13-17 on cells naturally expressing TLR4, we used the murine macrophage RAW 264.7-Blue cell line, which are murine RAW 264.7 macrophages with chromosomal integration of SEAP reporter construct described in the previous section.
# Figure 8 Inhibition of LPS-induced TLR4 signaling in RAW 264.7-Blue cells. […] SEAP reporter levels in the cell supernatant were determined by QuantiBlue Assay 24 h later. Error bars represent the standard deviation of the mean of technical triplicates. The graph is representative of at least three independent experiments.
# Murine RAW 264.7-Blue cells (Invivogen) derived from the murine RAW 264.7 macrophages and stably expressing an NF-κB-inducible secreted alkaline phosphatase (SEAP) reporter gene were cultured in Dulbecco’s modified Eagle’s medium (DMEM), supplemented with 10% Fetal bovine serum (FBS), L-Glutamine (2 mM) and sodium pyruvate (0.4 mM), in the presence of selection antibiotic Zeocin (200 μg/mL). E. coli O111:B4 LPS was purchased from Invivogen. Bovine serum albumin (BSA) was purchased from Sigma-Aldrich. Compounds FP13-17 were reconstituted in DMSO/ethanol to provide a 10 mM stock solution. […] C57BL6/J mice were obtained from Janvier. […]
# […] 24 h later cell supernatants were analyzed for SEAP production by the QUANTI-Blue Assay (Invivogen).
# C57BL/6 mice [2] = test: LPS-induced serum TNFα in mice, compound i.p.; format: in vivo, mouse; conditions: 200 µg i.p., LPS 30 min later, serum after 4 h
# Method: To further investigate whether carboxylate-based lipid A mimetics are able to inhibit LPS-induced signaling in vivo, we injected C57BL/6 mice i.p. with 200 µg of compound FP13 followed by the LPS injection 30 min later. […] The reason for this was unclear and we hypothesized poor distribution and absorption of the compound upon i.p. injection.
# C57BL/6 mice were injected i.p. with 200 µg FP13. 30 min later, the mice were i.p. injected with 150 µg of Salmonella enterica LPS, or vehicle and PBS as controls. Mice were sacrificed 4 h later and serum was collected. Serum TNF concentration was determined by Luminex-based Bio-Plex Multiplex system. Error bars represent the standard deviation of the mean.
# C57BL/6 mice [3] = test: LPS-induced lung neutrophilia in mice, intratracheal administration; format: in vivo, mouse; conditions: 45 µg i.t. with 1 µg LPS, BAL after 16 h
# Method: We therefore also explored the antagonistic capacity of FP13 in a different in vivo model, where LPS and FP13 were both administered locally in the lungs. Intratracheal (i.t.) instillation of LPS is known to cause an acute inflammatory response in mice, characterized by transient infiltration of neutrophils into the airways[57],[58].
# PBS and vehicle were administered as controls. Mice were sacrificed 16 h later and neutrophilia in the BAL fluid was measured by flow cytometry. Error bars represent the standard deviation of the mean.
# [4] = design: method as in PMID 24339336; conditions: cited from earlier work
Structure (SMILES),Kd (human MD-2 (hMD-2)) [µM],IC50 (human TLR4) [µM],antagonistic activity in presence of serum ([1]; DMEM supplemented with 10% FBS),antagonistic activity in presence of BSA ([1]; serum-free with 4 or 20 mg/mL BSA),effect on LPS-induced serum TNFα levels (C57BL/6 mice [2]),effect on LPS-induced neutrophil infiltration into the airways (C57BL/6 mice [3]),CMC [4]
CCCCCCCC/C=C\CCCCCCCC(=O)N[C@H]1[C@H](OC(=O)CCC(=O)O)O[C@H](CO)[C@@H](OC(=O)CCC(=O)O)[C@@H]1OC(=O)CCCCCCC/C=C\CCCCCCCC [FP13],9,5.91,completely neutralized,strongly decreased,did not affect,failed to suppress,
CCCCCCCCCCCCCC(=O)N[C@H]1[C@@H](OP(=O)(O)O)O[C@H](CO)[C@@H](OP(=O)(O)O)[C@@H]1OC(=O)CCCCCCCCCCCCC [FP7],,,,,,,about 9 µM
CCCCC/C=C\C/C=C\CCCCCCCC(=O)N[C@H]1[C@H](OC(=O)CCC(=O)O)O[C@H](CO)[C@@H](OC(=O)CCC(=O)O)[C@@H]1OC(=O)CCCCCCC/C=C\C/C=C\CCCCC [FP14],35,4.35,,,,,

# The remaining compounds from weak to strong by Kd (human MD-2 (hMD-2)), led by results:
Kd (human MD-2 (hMD-2)) [µM],IC50 (human TLR4) [µM],Structure (SMILES),antagonistic activity in presence of serum ([1]; DMEM supplemented with 10% FBS),antagonistic activity in presence of BSA ([1]; serum-free with 4 or 20 mg/mL BSA),effect on LPS-induced serum TNFα levels (C57BL/6 mice [2]),effect on LPS-induced neutrophil infiltration into the airways (C57BL/6 mice [3]),CMC [4]
21,6.61,CCCCC/C=C\C/C=C\CCCCCCCC(=O)N[C@H]1[C@H](OC(=O)CCC(=O)O)O[C@H](CO)[C@@H](OC(=O)CCC(=O)O)[C@@H]1OC(=O)CCCCCCCCCCCCC [FP16],,,,,
14,3.5,CCCCCCCC/C=C\CCCCCCCC(=O)N[C@H]1[C@H](OC(=O)CCC(=O)O)O[C@H](CO)[C@@H](OC(=O)CCC(=O)O)[C@@H]1OC(=O)CCCCCCCCCCCCC [FP15],,,,,
12,2.7,CCCCCCCCCCCCCC(=O)N[C@H]1[C@H](OC(=O)CCC(=O)O)O[C@H](CO)[C@@H](OC(=O)CCC(=O)O)[C@@H]1OC(=O)CCCCCCCCCCCCC [FP17],,,,,
